# Measurements published in US20050245461A1, “Methods for treating alcoholism” (priority 2004, published 2005).
# “Also recorded” adds a separate entry of the source. Like-named read-outs stand apart in the source and are kept apart here.
# What was measured:
# alcohol withdrawal = conditions: literature (Myrick 1998; Karam-Hage 2000; Minuk 1995); cited from earlier work
# [1] = tested on: ethanol drinking (lever presses for ethanol cocktail); experiment: rat model of alcohol self-administration (operant lever pressing for 10% ethanol cocktail); conditions: for effect on naltrexone's ability to decrease drinking when coadministered: coadministered with naltrexone, conclusion of Example 1; for ED50: Rattus norvegicus; for Lever Presses (Mean ± SEM): 30 min session
# Description: Male Wistar rats (starting weight of 200±30 grams; Charles River Laboratories, MA) were individually housed with free access to food and water. […] These conditions were recorded once daily throughout the study.
# Animals were trained daily in an operant chamber to press a lever to receive access to an ethanol cocktail as a reinforcer using a saccharin fading procedure. […] The final ethanol cocktail contained 10% ethanol in 0.04% saccharine. Each session lasted 30 minutes, during which the rat could press the lever twice to gain access to 0.1 mL of the ethanol cocktail. The operant chamber (Coulbourn Instruments, Allentown, Pa.) is a computer-controlled automated system which recorded the number of lever presses completed by a rat. At the end of the training period (6-8 weeks), rats which consistently drank a sufficient quantity of ethanol to produce a pharmacological effect (minimum intake of 0.6 g/kg/hour) were selected to participate in the drug studies. These trained rats were used repeatedly throughout these studies to control for intra-subject variability. All drugs were administered acutely with a minimum of a 2 day drug washout period.
# Naltrexone was prepared daily in 0.9% saline and administered subcutaneously (SC). The anticonvulsants (gabapentin, carbamazepine, levetiracetam and lamotrigine) were suspended in 3% carboxymethyl cellulose; a total volume of 1 mL/kg of this suspension was delivered orally (PO) to the rat using a gavage tube.
# The ability of naltrexone to reduce ethanol drinking (i.e., decrease the number of lever presses) was assessed in this animal model of self administration of ethanol. […] The total number of lever presses was recorded over the 30 minute test session. […] An anticonvulsant (gabapentin, carbamazepine, levetiracetam or lamotrigine) was coadministered with naltrexone to determine if it affected naltrexone's ability to decrease ethanol drinking. […] This dose allows one to determine if the co-administered drugs impaired or enhanced naltrexone's effect on ethanol drinking. The anticonvulsants were administered orally 30 minutes prior to a naltrexone injection (SC) (i.e., 60 minutes prior to the beginning of the ethanol drinking test session). The number of lever presses for the ethanol cocktail was recorded at the end of the 30 minute session.
# [2] = tested on: audiogenic-induced convulsions; experiment: audiogenic-induced convulsions in mouse model of alcohol withdrawal
# Description: These conditions were recorded once daily throughout the study.
# Alcohol is provided in a nutritionally balanced liquid diet.
# [3] = pharmacokinetic study: naltrexone in plasma alone or coadministered with gabapentin; format: in vivo, rat; conditions: vehicle+naltrexone vs gabapentin+naltrexone (gabapentin 1 mg/kg, naltrexone 0.5 mg/kg), rats
# Description: FIG. 3C is a line graph showing the amount of naltrexone in the plasma over a period of time for naltrexone administered alone or naltrexone coadministered with gabapentin.
# To determine if this drug interaction might be effective in decreasing ethanol drinking with lower doses of naltrexone, the dose of gabapentin (1 mg/kg) was kept constant and the dose of naltrexone varied from 0.05 to 3.0 mg/kg (FIG. 3B). […] To determine if gabapentin may be altering the plasma profile of naltrexone at this dose combination, a pharmacokinetic study was run in a separate cohort group of rats.
# [4] = anticonvulsant 0.1 mg/kg PO + naltrexone 0.1 mg/kg SC
# [5] = anticonvulsant 1.0 mg/kg PO + naltrexone 0.1 mg/kg SC
# [6] = anticonvulsant 10.0 mg/kg PO + naltrexone 0.1 mg/kg SC
compound,measurement,setting,value
1-(aminomethyl)cyclohexane acetic acid [Gabapentin],safety and efficacy as alternatives to benzodiazepines for the treatment of alcohol withdrawal,alcohol withdrawal,safe and efficacious
same,effect on naltrexone's ability to decrease drinking when coadministered,[1],did not impair or block
same,enhancement of naltrexone's effect on alcohol drinking,"[1]; coadministration of gabapentin, narrow therapeutic window",enhanced naltrexone's effects of alcohol drinking
same,"ethanol drinking, combination compared to naltrexone alone","[1]; gabapentin 1 mg/kg PO plus naltrexone 0.5 mg/kg SC, p<0.006",further significant decrease
same,"difference in number of lever presses, naltrexone alone vs combined with gabapentin","[1]; gabapentin 1 mg/kg constant, naltrexone 0.05 to 3.0 mg/kg, except at 0.5 mg/kg naltrexone",No differences
same,potentiation of naltrexone's decrease in ethanol drinking,[1]; gabapentin 0.1 and 10.0 mg/kg coadministered with naltrexone 0.5 mg/kg,not seen
same,effect on lever pressing for ethanol compared to non-drug treated conditions,"[1]; gabapentin alone, 1 or 10 mg/kg",neither gabapentin at 1 or 10 mg/kg alone had any effect
"CC[C@@H](C(N)=O)N1CCCC1=O (single isomer, unassigned) [Levetiracetam]",Number of Lever Presses (mean ± sem),[1]; anticonvulsant 1.0 mg/kg PO + naltrexone 0.5 mg/kg SC,34 ± 11
same,Number of Lever Presses (mean ± sem),[1]; anticonvulsant 10.0 mg/kg PO + naltrexone 0.5 mg/kg SC,36 ± 8
same,Number of Lever Presses (mean ± sem),[1]; anticonvulsant 100.0 mg/kg PO + naltrexone 0.5 mg/kg SC,34 ± 9
same,effect on naltrexone's ability to decrease drinking when coadministered,[1],did not impair or block
same,"difference between naltrexone (with vehicle) and combination with naltrexone, lever presses",[1]; levetiracetam 1-100 mg/kg PO + naltrexone 0.5 mg/kg SC,no significant differences
"NC(=O)N1c2ccccc2C=Cc2ccccc21 [Carbamazepine, 5H-dibenz [b,f] azepine-5-carboxamide]","Withdrawal Rating (mean ± sem), behavioral response scale of 1-4",[2]; carbamazepine 10 mg/kg PO + saline,1.1 ± 0.1
same,difference between drug groups on the audiogenic convulsion test,"[2]; carbamazepine 10 mg/kg with/without naltrexone 3 mg/kg, p=0.18",no statistical differences
same,Number of Lever Presses (mean ± sem),[1]; [4],68 ± 10
same,Number of Lever Presses (mean ± sem),[1]; [5],49 ± 8
same,Number of Lever Presses (mean ± sem),[1]; [6],48 ± 9
same,effect of combination with naltrexone on ethanol drinking,[1]; carbamazepine 0.1-10.0 mg/kg PO + naltrexone 0.1 mg/kg,did not significantly affect
same,effect on naltrexone's ability to decrease drinking when coadministered,[1],did not impair or block
"Nc1nnc(-c2cccc(Cl)c2Cl)c(N)n1 [Lamotrigine, 6-(2,3-dichlorophenyl)-1,2,4-trizine-3,5-diamine]",Number of Lever Presses (mean ± sem),[1]; [4],61 ± 13
same,Number of Lever Presses (mean ± sem),[1]; [5],60 ± 13
same,Number of Lever Presses (mean ± sem),[1]; [6],567 ± 10
same,effect on naltrexone's ability to decrease drinking when coadministered,[1],did not impair or block
same,effect of combination with naltrexone on number of lever presses for ethanol,[1]; lamotrigine 0.1-10 mg/kg PO + naltrexone 0.1 mg/kg SC,did not significantly affect
O=C1CC[C@@]2(O)[C@H]3Cc4ccc(O)c5c4[C@@]2(CCN3CC2CC2)[C@H]1O5 [Naltrexone],"plasma profile of naltrexone, difference between treatment groups",[3],no statistical difference
same,exacerbation of audiogenic-induced convulsions,"[2]; naltrexone 3 mg/kg with carbamazepine 10 mg/kg, mice with alcohol withdrawal symptoms",did not exacerbate
same,interaction with carbamazepine's anticonvulsant activity,"[2]; naltrexone 3 mg/kg, carbamazepine 10 mg/kg",did not appear to interact
same,ED50,[1]; read-out: ED50 re-established,0.1 mg/kg
same,ED50,"[1]; sc, read-out: ED50 (dose reducing lever responding for ethanol by approximately 50% compared to baseline)",0.5 mg/kg
same,ED50,"[1]; sc, read-out: ED50 for decrease in number of lever presses",0.1 to 0.5 mg/kg
same,decrease in lever presses vs baseline and vehicle control,"[1]; lowest dose of naltrexone tested, 0.05 mg/kg",no significant decrease
same,dose dependence of decrease in number of lever presses,[1]; naltrexone 0-6 mg/kg SC,dose-dependent decrease
same,Approximate Absolute Ethanol Consumed,[1]; naltrexone 0.05 mg/kg SC,~1.0 g/kg
same,Lever Presses (Mean ± SEM),[1]; naltrexone 0.05 mg/kg SC,132 ± 13.3
same,Approximate Absolute Ethanol Consumed,[1]; naltrexone 0.1 mg/kg SC,~0.7 g/kg
same,Lever Presses (Mean ± SEM),[1]; naltrexone 0.1 mg/kg SC,88 ± 8.6
same,decrease in number of lever presses from the baseline,"[1]; naltrexone 0.1 mg/kg, carbamazepine study",42.4%
same,Approximate Absolute Ethanol Consumed,[1]; naltrexone 0.5 mg/kg SC,~0.6 g/kg
same,Lever Presses (Mean ± SEM),[1]; naltrexone 0.5 mg/kg SC,83 ± 12.1
same,decrease in lever responding for ethanol compared to non-drug baseline,"[1]; naltrexone 0.5 mg/kg SC, levetiracetam study",65%
same,specificity of decrease in drinking for ethanol versus saccharine,"[1]; naltrexone 0.5 mg/kg SC, 0.1% saccharine solution substituted for ethanol cocktail",specific for ethanol; also recorded: selective for decreasing ethanol drinking
same,Approximate Absolute Ethanol Consumed,[1]; naltrexone 1.0 mg/kg SC,~0.3 g/kg
same,Lever Presses (Mean ± SEM),[1]; naltrexone 1.0 mg/kg SC,43 ± 8.6
same,Approximate Absolute Ethanol Consumed,[1]; naltrexone 3.0 mg/kg SC,~0.2 g/kg
same,Lever Presses (Mean ± SEM),[1]; naltrexone 3.0 mg/kg SC,24 ± 8.1
same,Approximate Absolute Ethanol Consumed,[1]; naltrexone 6.0 mg/kg SC,~0.2 g/kg
same,Lever Presses (Mean ± SEM),[1]; naltrexone 6.0 mg/kg SC,21 ± 5.5
same,effect on decreasing ethanol drinking at higher doses,[1]; naltrexone 3 and 6 mg/kg,appeared to plateau
same,decrease in number of lever presses for ethanol compared to non-drug baseline,"[1]; naltrexone ED50 dose (0.5 mg/kg), gabapentin study",54%
same,reduction in lever pressing for ethanol,"[1]; naltrexone alone 0.5 mg/kg, additional testing, most of the animals",greater than 50%
same,decrease in lever responding for ethanol compared to non-drug baseline,"[1]; naltrexone alone (0.1 mg/kg SC), lamotrigine study",49%
same,Number of Lever Presses (mean ± sem),"[1]; vehicle (drug dose 0.0) PO + naltrexone 0.1 mg/kg SC, carbamazepine study",67 ± 17
same,Number of Lever Presses (mean ± sem),"[1]; vehicle (drug dose 0.0) PO + naltrexone 0.1 mg/kg SC, lamotrigine study",74 ± 18
same,Number of Lever Presses (mean ± sem),"[1]; vehicle (drug dose 0.0) PO + naltrexone 0.5 mg/kg SC, levetiracetam study",50 ± 10
"CCCC(CCC)C(=O)O [valproic acid, 2-propylpentanoic acid]",safety and efficacy as alternatives to benzodiazepines for the treatment of alcohol withdrawal,alcohol withdrawal,safe and efficacious
